Assay results published in US20130225629A1, “TARGETING PI3K/MTOR SIGNALLING AND NEUTROPHIL RECRUITMENT FOR TREATMENT OF ENTERITIS” (THE UNIVERSITY OF NORTH CAROLINA AT CHAPEL HILL, priority 2012, published 2013).

Legend:
AKT (S473) = assay: Western blot of AKT phosphorylation in colonic lysates of C. jejuni infected mice; type: in vivo; settings: AS252424 10 mg/kg i.p. daily, 6 days
Protocol: (§1) A segment of the distal colon was lysed in 300 μl Laemmli buffer, homogenized and heated at 95° C. for 5 min. 20 μg of total protein were separated by SDS-PAGE and transferred to nitrocellulose membranes. Targeted protein was detected using enhanced chemiluminescence reaction (ECL) as described previously (Muhlbauer et al., 2008). Primary antibodies used were phosphor-AKT (S473), phosphor-p70S6K (T389), total AKT (all from Cell Signaling, Danvers, Mass., United States of America) and EGFP (Sigma, St. Louis, Mo., United States of America). The density of Western blot bands was quantified using ImageJ and data were normalized to total AKT control.

NF-κB = assay: NF-κB-driven EGFP expression in colon (macroimaging, Western blot, confocal); type: in vivo; settings: AS252424-treated vs vehicle-treated mice
Protocol: (§2) Whole tissues were lysed in Laemmli buffer and 20 μg of protein was separated by SDS-PAGE, transferred to nitrocellulose membranes and protein detected using enhanced chemiluminescence reaction (ECL) as described previously. (Lippert et al., 2009). Primary antibodies used were phospho-p70S6K (T389) and p70S6K (Cell Signaling, Danvers, Mass., United States of America), EGFP (Sigma, St. Louis, Mo., United States of America), LC3 I/II (MBL) and Actin.
II10^−/−; NF-κB^EGFP mice were sacrificed; the colon was dissected and immediately imaged using a charge-coupled device camera in a light-tight imaging box with a dual-filtered light source and emission filters specific for EGFP (LT-99D2 Illumatools; Lightools Research, Encinitas, Calif., United States of America). For microimaging, colonic segments were cut open and fixed in 4% paraformaldehyde overnight at 4° C., and then permeabilized in 2% triton overnight at 4° C. The tissues were then immersed in FocusClear (CelExplorer labs) and then stained with DAPI. […]
A segment of the distal colon was lysed in 300 μl Laemmli buffer, homogenized and heated at 95° C. for 5 min. […] Targeted protein was detected using enhanced chemiluminescence reaction (ECL) as described previously (Muhlbauer et al., 2008). […] The density of Western blot bands was quantified using ImageJ and data were normalized to total AKT control. […]

Cxcl2 mRNA = assay: Real-time RT-PCR of colonic Cxcl2 mRNA; type: in vivo, mice; settings: AS252424 vs vehicle treated infected mice
Protocol: Total RNA from colonic tissue was extracted using TRIzol® kit (Invitrogen, Carlsbad, Calif., United States of America). Complementary DNA was prepared using M-MLV (Invitrogen). Messenger RNA levels of proinflammatory genes were determined using SYBR® Green PCR Master Mix (Applied Biosystems, Carlsbad, Calif., United States of America) on an ABI 7900HT Fast Real-Time PCR System and normalized to Gapdh. The polymerase chain reactions were performed according to the manufacturer's recommendation. The following gene primers were used: Gapdh_forward: 5′-[…]-3′ (SEQ ID NO: 2), Gapdh_reverse: 5′-[…]-3′ (SEQ ID NO: 3), II-1_forward: 5′-[…]-3′ (SEQ ID NO: 4), II-1_reverse: 5′-[…]-3′ (SEQ ID NO: 5), Cxcl2_forward: 5′-[…]-3′ (SEQ ID NO: 6), Cxcl2_reverse: 5′-[…]-3′ (SEQ ID NO: 7), II-17a_forward: 5′-[…]-3′ (SEQ ID NO: 8), II-17a_reverse: 5′-[…]-3′ (SEQ ID NO: 9), II12p40_forward: […] (SEQ ID NO: 10), II12p40_reverse: […] (SEQ ID NO: 11), Tnf forward: […] (SEQ ID NO: 12), Tnf reverse: […] (SEQ ID NO: 13).
Total RNA from intestinal tissues was extracted using TRIzol® kit (Invitrogen, Carlsbad, Calif., United States of America) following the manufacture's guide. cDNA was reverse-transcribed using M-MLV (Invitrogen). Proinflammatory 111β, Cxcl2, II17a and Tnfα mRNA expression levels were measured using SYBR® Green PCR Master mix (Applied Biosystems, Carlsbad, Calif., United States of America) on an ABI 7900HT Fast Real-Time PCR System and normalized to Gapdh. The PCR primers used were reported previously. (Sun et al., 2012). The PCR reactions were performed for 40 cycles according to the manufacturer's recommendation, and RNA fold changes were calculated using the ΔΔct method.

p70S6 kinase (T389) = assay: Western blot of colonic p70S6K phosphorylation in C. jejuni infected mice; type: in vivo; settings: AS252424 10 mg/kg i.p. daily, 6 days
Protocol: as §2, §1

## O=C1NC(=O)/C(=C/c2ccc(-c3ccc(F)cc3O)o2)S1 [AS252424]
AKT (S473)
  AKT phosphorylation (S473) in colonic extracts: modest reduction
NF-κB
  induction of EGFP expression (NF-κB activity) in the colon: reduced
Cxcl2 mRNA
  block of C. jejuni-induced Cxcl2 mRNA accumulation: 73%
p70S6 kinase (T389)
  attenuation of p70S6K phosphorylation (T389) in colonic extracts: 34%
